How the values were obtained:
RXRγ [1] = assay: ligand binding assay, RXRγ; settings: read-out: RXR Bind Ki γ
From the text: (§1) Other assays described below, measure the ability of the compounds of the present invention to bind to, and/or activate various retinoid receptor subtypes. When in these assays a compound binds to a given receptor subtype and activates the transcription of a reporter gene through that subtype, then the compound is considered an agonist of that receptor subtype. […] In the below described assays the ability of the compounds to bind to RARα, RARβ, RARγ, RXRα, RXRβ and RXRγ receptors, and the ability or inability of the compounds to activate transcription of a reporter gene through these receptor subtypes can be tested. […] However, some of the compounds of the invention may behave as retinoid antagonists or partial antagonists and/or as inverse agonists. Because of the complex distribution of the different retinoid receptors in various organs of the mammalian body partial agonists and partial antagonists and compounds which have the characteristics of both may lend themselves to particularly useful therapeutic applications and may avoid serious side effects of conventional retinoid drugs.
(§2) A holoreceptor transactivation assay and a ligand binding assay which measure the antagonist/agonist like activity of the compounds of the invention, or their ability to bind to the several retinoid receptor subtypes, respectively, are described in published PCT Application No. WO WO93/11755 (particularly on pages 30-33 and 37-41) published on Jun. 24, 1993, the specification of which is also incorporated herein by reference. A detailed experimental procedure for holoreceptor transactivations has been described by Heyman et al. Cell 68, 397-406, (1992); Allegretto et al. J. Biol. Chem. 268, 26625-26633, and Mangelsdorf et al. The Retinoids: Biology, Chemistry and Medicine, pp 319-349, Raven Press Ltd., New York, which are expressly incorporated herein by reference. The results obtained in this assay are expressed in EC50 numbers, as they are also in the chimeric receptor transactivation assay. The results of ligand binding assay are expressed in Kd numbers. (See Cheng et al. Biochemical Pharmacology Vol. 22 pp 3099-3108, expressly incorporated herein by reference.)
(§3) Table 1 discloses the activity of certain exemplary compounds of the invention in the above-described chimeric receptor transactivation assay, holoreceptor transactivation assay and a ligand binding assays. Particularly, the transactivation data pertaining to RAR receptors were obtained in the chimeric assay, and the data pertaining to transactivation of RXR receptors were obtained in the holoreceptor transactivation assay.

RXRα [2] = target: T1, RXRα (Homo sapiens, UniProt P19793); assay: ligand binding assay, RXRα; settings: read-out: RXR Bind Ki α
T1 construct: expressed in transfected cells
T1 sequence (P19793 1-462): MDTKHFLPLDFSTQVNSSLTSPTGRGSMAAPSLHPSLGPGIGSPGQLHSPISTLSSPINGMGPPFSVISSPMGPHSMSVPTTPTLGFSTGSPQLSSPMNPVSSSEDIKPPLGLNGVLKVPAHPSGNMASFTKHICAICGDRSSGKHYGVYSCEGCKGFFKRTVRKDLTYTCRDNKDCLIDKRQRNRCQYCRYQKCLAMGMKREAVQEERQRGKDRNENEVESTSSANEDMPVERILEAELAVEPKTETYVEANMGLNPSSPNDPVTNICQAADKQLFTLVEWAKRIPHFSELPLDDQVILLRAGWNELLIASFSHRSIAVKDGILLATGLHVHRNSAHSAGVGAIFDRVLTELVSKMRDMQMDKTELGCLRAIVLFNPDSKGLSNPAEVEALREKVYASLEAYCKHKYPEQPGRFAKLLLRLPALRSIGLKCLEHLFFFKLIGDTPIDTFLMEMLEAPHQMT
From the text: as §1, §2, §3

RARγ = target: T2, RARγ (Homo sapiens, UniProt P13631); assay: ligand binding assay, RARγ; settings: read-out: RAR Bind. Ki γ
T2 sequence (P13631 1-454): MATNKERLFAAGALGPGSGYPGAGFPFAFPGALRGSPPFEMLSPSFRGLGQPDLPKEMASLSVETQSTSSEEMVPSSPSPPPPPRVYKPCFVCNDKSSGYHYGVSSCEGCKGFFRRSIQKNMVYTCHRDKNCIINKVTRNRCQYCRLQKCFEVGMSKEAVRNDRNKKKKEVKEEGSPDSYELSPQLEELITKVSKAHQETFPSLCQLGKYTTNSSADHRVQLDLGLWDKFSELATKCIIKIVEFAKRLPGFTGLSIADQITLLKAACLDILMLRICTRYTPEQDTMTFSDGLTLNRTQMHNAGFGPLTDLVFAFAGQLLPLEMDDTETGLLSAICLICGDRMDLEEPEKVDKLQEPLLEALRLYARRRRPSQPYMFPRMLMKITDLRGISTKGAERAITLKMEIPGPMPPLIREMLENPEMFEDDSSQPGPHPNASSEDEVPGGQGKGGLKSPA
From the text: as §1, §2, §3

RARα = target: T3, RARα (Homo sapiens, UniProt P10276); assay: ligand binding assay, RARα; settings: read-out: RAR Bind. Ki α
T3 sequence (P10276 1-462): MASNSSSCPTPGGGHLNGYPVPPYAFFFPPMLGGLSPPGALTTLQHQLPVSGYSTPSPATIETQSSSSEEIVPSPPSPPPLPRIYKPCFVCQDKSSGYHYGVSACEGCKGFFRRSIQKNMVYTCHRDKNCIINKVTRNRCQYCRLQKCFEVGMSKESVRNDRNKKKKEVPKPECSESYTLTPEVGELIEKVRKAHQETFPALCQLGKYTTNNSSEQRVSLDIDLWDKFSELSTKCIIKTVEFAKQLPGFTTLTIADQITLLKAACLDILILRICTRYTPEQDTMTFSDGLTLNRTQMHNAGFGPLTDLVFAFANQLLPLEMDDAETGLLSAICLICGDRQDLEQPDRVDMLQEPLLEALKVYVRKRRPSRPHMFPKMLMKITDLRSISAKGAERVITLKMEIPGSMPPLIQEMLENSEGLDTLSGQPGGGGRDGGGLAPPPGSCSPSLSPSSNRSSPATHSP
From the text: as §1, §2, §3

RARβ = target: T4, RARβ (Homo sapiens, UniProt P10826); assay: ligand binding assay, RARβ; settings: read-out: RAR Bind. Ki β
T4 sequence (P10826 1-448 isoform P10826-2): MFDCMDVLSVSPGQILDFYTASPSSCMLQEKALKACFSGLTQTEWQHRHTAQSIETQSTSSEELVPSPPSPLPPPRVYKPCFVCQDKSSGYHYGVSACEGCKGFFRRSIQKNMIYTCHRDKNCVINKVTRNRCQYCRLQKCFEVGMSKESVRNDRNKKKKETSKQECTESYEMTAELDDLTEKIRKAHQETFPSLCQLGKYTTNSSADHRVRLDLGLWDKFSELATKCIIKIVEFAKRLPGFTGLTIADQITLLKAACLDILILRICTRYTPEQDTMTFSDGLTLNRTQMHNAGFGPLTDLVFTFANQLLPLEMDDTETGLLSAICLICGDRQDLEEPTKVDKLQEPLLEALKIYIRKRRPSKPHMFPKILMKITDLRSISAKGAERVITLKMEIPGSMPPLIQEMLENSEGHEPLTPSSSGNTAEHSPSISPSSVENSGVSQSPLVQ
From the text: as §1, §2, §3

RXRβ [3] = assay: ligand binding assay, RXRβ; settings: read-out: RXR Bind Ki β
From the text: as §1, §2, §3

RXRγ [4] = target: T5, RXRγ (Mus musculus, UniProt P28705); assay: holoreceptor transactivation assay, RXRγ; type: cell-based; settings: for EC50: holoreceptor transactivation, RXRγ, read-out: RXR Trans. EC50 γ; for Emax: relative to 10^-6 M cyclopropyl penta-2,4-dienoic acid reference (RXRs), read-out: % efficacy (RXRγ transactivation)
T5 construct: expressed in transfected cells
T5 sequence (P28705 1-463): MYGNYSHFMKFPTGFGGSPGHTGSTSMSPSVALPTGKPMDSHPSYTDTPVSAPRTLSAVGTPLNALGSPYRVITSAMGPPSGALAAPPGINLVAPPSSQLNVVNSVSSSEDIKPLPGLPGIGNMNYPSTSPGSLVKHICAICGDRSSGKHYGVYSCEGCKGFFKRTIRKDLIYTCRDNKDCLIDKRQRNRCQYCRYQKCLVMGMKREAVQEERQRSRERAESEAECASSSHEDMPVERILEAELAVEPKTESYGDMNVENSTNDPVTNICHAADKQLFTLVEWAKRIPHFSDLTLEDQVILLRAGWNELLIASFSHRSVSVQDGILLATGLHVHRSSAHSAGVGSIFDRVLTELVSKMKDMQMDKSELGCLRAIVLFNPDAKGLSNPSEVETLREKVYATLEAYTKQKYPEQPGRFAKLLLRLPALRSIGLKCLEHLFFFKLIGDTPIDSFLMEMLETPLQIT
From the text: as §1, §2, §3

RXRα [5] = target: T1, RXRα; assay: holoreceptor transactivation assay, RXRα; type: cell-based; settings: for EC50: holoreceptor transactivation, RXRα, read-out: RXR Trans. EC50 α; for Emax: relative to 10^-6 M cyclopropyl penta-2,4-dienoic acid reference (RXRs), read-out: % efficacy (RXRα transactivation)
From the text: as §1, §2, §3

RXRβ [6] = target: T6, RXRβ (Mus musculus, UniProt P28704); assay: holoreceptor transactivation assay, RXRβ; type: cell-based
T6 construct: expressed in transfected cells
T6 sequence (P28704 1-520): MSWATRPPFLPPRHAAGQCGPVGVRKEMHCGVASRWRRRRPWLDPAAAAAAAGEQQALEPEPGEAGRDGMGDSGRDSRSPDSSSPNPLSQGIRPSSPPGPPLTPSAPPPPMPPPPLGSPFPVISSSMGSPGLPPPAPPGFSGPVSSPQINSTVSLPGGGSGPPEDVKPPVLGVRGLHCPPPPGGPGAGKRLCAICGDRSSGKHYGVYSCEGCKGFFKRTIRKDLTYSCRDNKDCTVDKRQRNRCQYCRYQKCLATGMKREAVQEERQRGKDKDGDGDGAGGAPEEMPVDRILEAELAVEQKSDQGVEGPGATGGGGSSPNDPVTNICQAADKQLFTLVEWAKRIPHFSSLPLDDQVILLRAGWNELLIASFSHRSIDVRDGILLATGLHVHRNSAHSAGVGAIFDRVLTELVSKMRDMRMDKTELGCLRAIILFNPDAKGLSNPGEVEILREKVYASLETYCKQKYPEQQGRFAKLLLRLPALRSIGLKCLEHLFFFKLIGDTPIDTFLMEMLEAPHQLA
From the text: as §1, §2, §3

Cc1cc(N(C)c2ccc(C(=O)O)cc2)cc2c1OCC2(C)C [Compound 26, 4-[Methyl-(3,3,7-trimethyl-2,3-dihydro-benzofuran-5-yl)-amino]-benzoic acid]
Ki (RXRγ [1]): > 100 µM | Ki (RXRα [2]): 10 µM | Ki (RARγ): 6.7 µM | Ki (RARα): > 30 µM | Ki (RARβ): > 30 µM | Ki (RXRβ [3]): > 100 µM

CCc1cc(N(C)c2ccc(C(=O)O)cc2)cc2c1OCC2(C)C [Compound 28, 4-[Methyl-(7-ethyl-3,3-dimethyl-2,3-dihydro-benzofuran-5-yl)-amino]-benzoicacid]
Ki (RXRγ [1]): > 10 µM | Ki (RXRα [2]): > 10 µM | Ki (RARγ): 4.5 µM | Ki (RARα): 9.4 µM | Ki (RARβ): > 10 µM | EC50 (RXRγ [4]): > 1 µM | Emax (RXRγ [4]): 15% | Ki (RXRβ [3]): > 10 µM | EC50 (RXRα [5]): > 1 µM | Emax (RXRα [5]): 25%

CCN(c1ccc(C(=O)O)cc1)c1cc2c(c(C(C)C)c1C)OCC2(C)C [Compound 70, 4-[Ethyl-(7-isopropyl-3,3,6-trimethyl-2,3-dihydro-benzofuran-5-yl)-amino]-benzoic acid]
EC50 (RXRβ [6]; holoreceptor transactivation, RXRβ, read-out: RXR Trans. EC50 β): 0.073 µM | Emax (RXRβ [6]; relative to 10^-6 M cyclopropyl penta-2,4-dienoic acid reference (RXRs), read-out: % efficacy (RXRβ transactivation)): 113% | EC50 (RXRγ [4]): 0.018 µM | Emax (RXRγ [4]): 120% | EC50 (RXRα [5]): 0.011 µM | Emax (RXRα [5]): 119%

Cc1cc(N(c2ccc(C(=O)O)cc2)C(C)C)cc2c1OCC2(C)C [Compound 41, 4-[Isopropyl-(3,3,7-trimethyl-2,3-dihydro-benzofuran-5-yl)-amino]-benzoic acid]
Ki (RXRγ [1]): > 100 µM | Ki (RXRα [2]): 9.2 µM | Ki (RARγ): > 30 µM | Ki (RARα): > 30 µM | Ki (RARβ): > 30 µM | Ki (RXRβ [3]): > 100 µM | EC50 (RXRα [5]): 1 µM | Emax (RXRα [5]): 75%
